# Test system: brown marmorated stink bug (BMSB), Halyomorpha halys
# Assay: Field trials of experimental pheromone constituents, baited black pyramid traps
# Format: in vivo
# Settings: for field attractiveness to BMSB (in words): 2011-2012 field trapping
# Description: Field Bioassays. Field Trials of Experimental Pheromone Constituents: Pyramid traps based on dimensions previously used for native stink bugs (Leskey and Hogmire 2005, Hogmire and Leskey 2006) and for brown marmorated stink bugs (Leskey et al. 2012c) were used for all trials. […] Each panel was 1.22 m high, 52 cm wide at the base, and 7 cm wide at the top. Collection jars were constructed based on previously published dimensions (Hogmire and Leskey 2006) with internal cone opening of 1.6 cm with trimmed wire edging to reduce escape. In addition, a Hercon Vaportape™ II (Hercon Environmental, Emigsville, Pa.) was added as a killing agent to prevent escape from traps. In a preliminary study, addition of a killing agent increased trap captures ˜250%. Traps were deployed ˜5 meters from the border of apple and pear orchards at the Appalachian Fruit Research Station or in the border area between wood lots and row crops in Kearneysville, W. Va., Shepherdstown, W. Va., Keedysville, Md., and Beltsville, Md. Traps were spaced ˜50 meters apart. Traps were baited with compounds identified from headspace collections of male BMSB, synthesized and formulated into gray rubber septa or left unbaited.
# Fourteen trials were conducted between 19 Apr. to 20 Oct. 2011 (Table 3) and four trials between 20 Mar. to 10 Oct. 2012 (Table 4). Traps were checked a minimum of twice weekly and the treatments were re-randomized at each collection.
# All adults and nymphs were removed from traps and recorded. Hercon Vaportape™ strips were changed at four week intervals and lures were changed at two week intervals. Comparisons of adult and nymphal captures used the SAS GLM procedure to evaluate effect of treatment and replicate followed by Tukey's HSD if the model was significant. Appropriate transformations were used to stabilize normality if needed. The effect of sex was dropped from all models because it was never a significant factor.
# [1] = AFRS 2011, Trial Eight, 11 August-6 Sept.
# [2] = AFRS 2011, Trial One, 19 April-10 May
# [3] = Beltsville 2011, Trial Eight, 11 August-6 Sept.
# [4] = Beltsville 2011, Trial One, 19 April-10 May
# [5] = AFRS 2012, Trial Two, 31 July-14 August
# [6] = Beltsville 2012, Trial Two, 1-14 August
# [7] = AFRS 2012, Trial Four, 22 September-10 October
# [8] = Beltsville 2012, Trial Four, 17 September-2 October
# [9] = AFRS 2012, Trial Three, 14 August-13 September
# [10] = Beltsville 2012, Trial Three, 14 August-11 September
Structure (SMILES),field attractiveness to BMSB (in words),Mean number BMSB adults (±SE) captured [5],Mean number BMSB nymphs (±SE) captured [5],Mean number BMSB adults (±SE) captured [6],Mean number BMSB nymphs (±SE) captured [6],Mean number BMSB adults (±SE) captured [7],Mean number BMSB nymphs (±SE) captured [7],Mean number BMSB adults (±SE) captured [8],Mean number BMSB nymphs (±SE) captured [8],Mean number BMSB adults (±SE) captured [9],Mean number BMSB nymphs (±SE) captured [9],Mean number BMSB adults (±SE) captured [10],Mean number BMSB nymphs (±SE) captured [10],other results
"CC1=C[C@H](O)[C@@H]([C@@H](C)CC[C@@H]2OC2(C)C)CC1 [Lure #1, (3R,6R,7S,10S)-10,11-epoxy-1-bisabolen-3-ol]",inactive,–,–,–,–,–,–,–,–,–,–,–,–,Mean number BMSB adults (±SE) captured [1]: 3.08 ± 0.55b per trap per sample; Mean number BMSB nymphs (±SE) captured [1]: 14.63 ± 6.06 per trap per sample; Mean number BMSB adults (±SE) captured [2]: 0.03 ± 0.03 per trap per sample; Mean number BMSB nymphs (±SE) captured [2]: 0.00 ± 0.00 per trap per sample; Mean number BMSB adults (±SE) captured [3]: 0.55 ± 0.13ab per treatment; Mean number BMSB nymphs (±SE) captured [3]: 3.49 ± 0.67 per treatment; Mean number BMSB adults (±SE) captured [4]: 0.00 ± 0.20b per treatment; Mean number BMSB nymphs (±SE) captured [4]: 0.00 ± 0.00 per treatment
"C[C@H](CC[C@@H]1OC1(C)C)[C@@H]1C=C[C@](C)(O)CC1 [Lure #17, (3R,6R,7R,10S)-10,11-epoxy-1-bisabolen-3-ol]",–,0.40 ± 0.40bc per treatment,7.15 ± 2.65ab per treatment,0.20 ± 0.12ab per treatment,20.30 ± 8.61 per treatment,–,–,–,–,–,–,–,–,–
"C[C@H](CC[C@@H]1OC1(C)C)[C@H]1C=C[C@](C)(O)CC1 [Lure #18, (3R,6S,7R,10S)-10,11-epoxy-1-bisabolen-3-ol]",moderately attractive,0.90 ± 0.38bc per treatment,6.50 ± 2.08ab per treatment,0.35 ± 0.13ab per treatment,23.45 ± 9.95 per treatment,2.48 ± 0.70abc per treatment,0.60 ± 0.37 per treatment,4.15 ± 1.17a per treatment,0.05 ± 0.05 per treatment,–,–,–,–,–
"C[C@H](CC[C@@H]1OC1(C)C)[C@H]1C=C[C@@](C)(O)CC1 [Lure #22, (3S,6S,7R,10S)-10,11-epoxy-1-bisabolen-3-ol]",more attractive than #23,–,–,–,–,1.36 ± 0.59bc per treatment,0.80 ± 0.57 per treatment,5.05 ± 1.01a per treatment,0.15 ± 0.11 per treatment,2.73 ± 0.50d per treatment,7.30 ± 2.02bc per treatment,2.65 ± 0.44a per treatment,21.90 ± 6.49ab per treatment,"field attractiveness to BMSB (in words) (listed as stereoisomer 1): attracted BMSB females, males, and nymphs"
"C[C@H](CC[C@H]1OC1(C)C)[C@@H]1C=C[C@](C)(O)CC1 [Lure #23, (3R,6R,7R,10R)-10,11-epoxy-1-bisabolen-3-ol]",not attractive,–,–,–,–,–,–,–,–,0.75 ± 0.29e per treatment,2.50 ± 0.53c per treatment,0.90 ± 0.26b per treatment,8.38 ± 2.90bc per treatment,–
